The record followed here is patent US9988381B2, “Five-member-heterocycle fused pyridine compounds, method of producing the same, and use thereof” (SHANGHAI INSTITUTE OF MATERIA MEDICA, CHINESE ACADEMY OF …, priority 2013, dated 2018).

In assay [1] the target is T1, c-Met kinase domain recombinant protein (Homo sapiens, UniProt P08581).
T1 construct: 50 μL diluted solution of c-Met kinase domain recombinant protein in reaction buffer was added to initiate the reaction
Kind of assay: biochemical. Conditions: read-out: Inhibition rate at 10 μM (%). An outline of the steps:
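ELISA on plates coated with Poly(Glu,Tyr)4:1 (20 μg/mL), kinase reaction with c-Met kinase domain and ATP in HEPES pH 7.4 buffer with MgCl2, MnCl2, Na3VO4 and DTT, 1 h at 37 °C. Phosphotyrosine detected with PY99 and HRP secondary antibody, read at 490 nm; inhibition rate calculated against ATP-free control.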

Assay [2] has as its target T1, c-Met kinase domain recombinant protein. Nature of the assay: biochemical. The note with it: for inhibition at 0.1 µM: read-out: Average inhibition rate at 0.1 μM (%); for inhibition at 1 µM: read-out: Average inhibition rate at 1 μM (%); for inhibition at 10 µM: read-out: Average inhibition rate at 10 μM (%). An outline of the steps: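 ELISA on plates coated with Poly(Glu,Tyr)4:1 (20 μg/mL coating solution). Recombinant c-Met kinase domain reacted with 5 μM ATP in HEPES pH 7.4 with Mg/Mn, vanadate and DTT for 1 hour at 37° C. Phosphotyrosine was detected with PY99 and HRP secondary antibody, read at 490 nm, and IC50 was taken from a four-parameter fit.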

Read-outs that look alike come from different tables or passages of the source. Bounds are passed on as bounds.

T1 sequence (P08581 1078-1345 limits assumed): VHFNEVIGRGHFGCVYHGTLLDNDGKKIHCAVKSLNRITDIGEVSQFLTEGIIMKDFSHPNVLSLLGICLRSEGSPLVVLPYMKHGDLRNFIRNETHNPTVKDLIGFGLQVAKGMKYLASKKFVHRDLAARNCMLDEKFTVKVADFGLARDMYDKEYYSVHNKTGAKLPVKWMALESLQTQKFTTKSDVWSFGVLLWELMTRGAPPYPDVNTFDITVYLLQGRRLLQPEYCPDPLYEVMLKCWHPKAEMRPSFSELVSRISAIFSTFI

A word on the inhibition: it is the relative decrease from the control value, in per cent. As to `Cn1cc(-c2cnc3cnn(S(=O)(=O)c4cnc5ccc(-c6ccc(C(F)(F)F)cc6)cn45)c3c2)cn1` [Example 77, 1-{[6-(4-trifluoromethylphenyl)-imidazo[1,2-a]pyridine]-3-sulfonyl}-6-[(1-methyl)-4-pyrazolyl]-1-H-pyrazolo[4,3-b]pyridine], in assay [1], the inhibition at 10 µM is above 76.9%. Also, in assay [2], the inhibition at 0.1 µM amounted to 55.8%, the inhibition at 1 µM worked out at 64.8% and the inhibition at 10 µM is 85.5%.
The like results for `Cc1ccc(-c2ccc3ncc(S(=O)(=O)n4ncc5ncc(-c6cnn(C)c6)cc54)n3c2)cc1F` [Example 78, 1-{[6-(3-fluoro-4-methylphenyl)-imidazo[1,2-a]pyridine]-3-sulfonyl}-6-[(1-methyl)-4-pyrazolyl]-1-H-pyrazolo[4,3-b]pyridine] were, in that order, above 12.1%, 64.5%, 69.3% and 89.3%.
With `CC(C)Oc1ccc(-c2ccc3ncc(S(=O)(=O)n4ncc5ncc(-c6cnn(C)c6)cc54)n3c2)cc1` [Example 79], the inhibition at 10 µM was above 83.1% in assay [1] and 77.4% in assay [2]. Further, the inhibition at 1 µM in assay [2] came to 30.5%.
In the same order, the values of `CN1CCN(C(=O)c2ccc(-c3ccc4ncc(S(=O)(=O)n5ncc6ncc(-c7cnn(C)c7)cc65)n4c3)cc2)CC1` [Example 80, 1-{[6-[4-(4-methylpiperazine-1-carbonyl)phenyl]-imidazo[1,2-a]pyridine]-3-sulfonyl}-6-[(1-methyl)-4-pyrazolyl]-1-H-pyrazolo[4,3-b]pyridine] are above 75.3%, 80.6% and 47.5%.
In the case of `Cn1cc(-c2cnc3cnn(S(=O)(=O)c4cnc5ccc(-c6cnn(C7CCNCC7)c6)cn45)c3c2)cn1` [Example 82, 1-{[6-([1-(4-piperidinyl)]-4-pyrazolyl)-imidazo[1,2-a]pyridine]-3-sulfonyl}-6-[(1-methyl)-4-pyrazolyl]-1-H-pyrazolo[4,3-b]pyridine chloride], the inhibition at 10 µM in assay [1] was above 78.5%. In assay [2], the inhibition at 0.1 µM is 54.4%, the inhibition at 1 µM stood at 63.8% and the inhibition at 10 µM was determined as 77.7%.
As to `Cn1cc(-c2cnc3cnn(S(=O)(=O)c4cnc5ccc(-c6cccc(C(F)(F)F)c6)cn45)c3c2)cn1` [Example 83, 1-{[6-(3-trifluoromethylphenyl)-imidazo[1,2-a]pyridine]-3-sulfonyl}-6-[(1-methyl)-4-pyrazolyl]-1-H-pyrazolo[4,3-b]pyridine], the inhibition at 10 µM in assay [1] is above 79.8%; in assay [2] it was 77.7%. Also, the inhibition at 1 µM in assay [2] was 44.4%.
The like results for `Cn1cc(-c2cnc3cnn(S(=O)(=O)c4cnc5ccc(-c6ccccc6C(F)(F)F)cn45)c3c2)cn1` [Example 84, 1-{[6-(2-trifluoromethylphenyl)-imidazo[1,2-a]pyridine]-3-sulfonyl}-6-[(1-methyl)-4-pyrazolyl]-1-H-pyrazolo[4,3-b]pyridine] were, in that order, above 71.5%, 73.5% and 41.2%.
In the same order, the values of `CN(C)c1ccc(-c2ccc3ncc(S(=O)(=O)n4ncc5ncc(-c6cnn(C)c6)cc54)n3c2)cc1` [Example 85, 1-{[6-(4-dimethylaminophenyl)-imidazo[1,2-a]pyridine]-3-sulfonyl}-6-[(1-methyl)-4-pyrazolyl]-1-H-pyrazolo[4,3-b]pyridine] are above 71.2%, 79.4% and 30.1%.
In the case of `Cn1cc(-c2cnc3cnn(S(=O)(=O)c4cnc5ccc(-c6cccc(F)c6)cn45)c3c2)cn1` [Example 86, 1-{[6-(3-fluorophenyl)-imidazo[1,2-a]pyridine]-3-sulfonyl}-6-[(1-methyl)-4-pyrazolyl]-1-H-pyrazolo[4,3-b]pyridine], in assay [1], the inhibition at 10 µM is above 67.9%. In assay [2], the inhibition at 0.1 µM is 45%, the inhibition at 1 µM was 66.6% and the inhibition at 10 µM is 77.8%.
The like results for `Cn1cc(-c2cnc3cnn(S(=O)(=O)c4cnc5ccc(-c6ccc(F)cc6F)cn45)c3c2)cn1` [Example 87, 1-{[6-(2,4-difluorophenyl)-imidazo[1,2-a]pyridine]-3-sulfonyl}-6-[(1-methyl)-4-pyrazolyl]-1-H-pyrazolo[4,3-b]pyridine] were, in that order, above 76.8%, 33.8%, 72.7% and 72.5%.
In the same order, the values of `Cn1cc(-c2cnc3cnn(S(=O)(=O)c4cnc5ccc(-c6cc(F)c(F)c(F)c6)cn45)c3c2)cn1` [Example 88, 1-{[6-(3,4,5-trifluorophenyl)-imidazo[1,2-a]pyridine]-3-sulfonyl}-6-[(1-methyl)-4-pyrazolyl]-1-H-pyrazolo[4,3-b]pyridine] are above 70.2%, 1.1%, 59.4% and 64.5%.
In the same order, the values of `COc1ccc(-c2ccc3ncc(S(=O)(=O)n4ncc5ncc(-c6cnn(C)c6)cc54)n3c2)cc1` [Example 89, 1-{[6-(4-methoxyphenyl)-imidazo[1,2-a]pyridine]-3-sulfonyl}-6-[(1-methyl)-4-pyrazolyl]-1-H-pyrazolo[4,3-b]pyridine] are above 71.7%, 45.3%, 79.9% and 83.4%.
In the case of `Cn1cc(-c2cnc3cnn(S(=O)(=O)c4cnc5ccc(-c6ccc(C#N)cc6)cn45)c3c2)cn1` [Example 92, 1-{[6-(4-cyanophenyl)-imidazo[1,2-a]pyridine]-3-sulfonyl}-6-[(1-methyl)-4-pyrazolyl]-1-H-pyrazolo[4,3-b]pyridine], the inhibition at 10 µM in assay [1] is above 71.9%. In assay [2], the inhibition at 0.1 µM was determined as 82.8%, the inhibition at 1 µM came to 79.1% and the inhibition at 10 µM stood at 78.9%.
In the same order, the values of `Cn1cc(-c2cnc3cnn(S(=O)(=O)c4cnc5ccc(-c6ccc7c(c6)OCCO7)cn45)c3c2)cn1` [Example 93, 1-{[6-[6-(1,4-benzodioxanyl)]-imidazo[1,2-a]pyridine]-3-sulfonyl}-6-[(1-methyl)-4-pyrazolyl]-1-H-pyrazolo[4,3-b]pyridine] are above 64.5%, 76.1%, 76.8% and 77.9%.
The like results for `Cn1cc(-c2cnc3cnn(S(=O)(=O)c4cnc5ccc(-c6ccc(Cl)cc6)cn45)c3c2)cn1` [Example 94, 1-{[6-(4-chlorophenyl)-imidazo[1,2-a]pyridine]-3-sulfonyl}-6-[(1-methyl)-4-pyrazolyl]-1-H-pyrazolo[4,3-b]pyridine] were, in that order, above 74.3%, 72.1%, 55.7% and 83.9%.
By IC50 is commonly meant the concentration that gives 50% inhibition. In the case of `COc1ccc(-c2ccc3ncc(S(=O)(=O)n4ncc5ncc(-c6cnn(C)c6)cc54)n3c2)cc1OC` [Example 96, 1-{[6-(3,4-dimethoxyphenyl)-imidazo[1,2-a]pyridine]-3-sulfonyl}-6-[(1-methyl)-4-pyrazolyl]-1-H-pyrazolo[4,3-b]pyridine], in assay [1], the inhibition at 10 µM is above 71.8%. Besides, in assay [2], the 50% inhibitory concentration (IC50) stood at 0.7 ± 0.1 nM, the inhibition at 0.1 µM is 56.6%, the inhibition at 1 µM worked out at 61.5% and the inhibition at 10 µM was 68.3%.
The like results for `Cn1cc(-c2cnc3cnn(S(=O)(=O)c4cnc5ccc(-c6ccc7c(c6)OCO7)cn45)c3c2)cn1` [Example 98, 1-{[6-[5-(1,2-methylenedioxyphenyl)]-imidazo[1,2-a]pyridine]-3-sulfonyl}-6-[(1-methyl)-4-pyrazolyl]-1-H-pyrazolo[4,3-b]pyridine] were, in that order, above 77.9%, 1.4 ± 0.1 nM, 50.6%, 66.8% and 74.3%.
On to `CNC(=O)c1ccc(-c2ccc3ncc(S(=O)(=O)n4ncc5ncc(-c6cnn(C)c6)cc54)n3c2)cc1F` [Example 101, 1-{(6-(3-fluoro-4-methylaminocarbonylphenyl)-imidazo[1,2-a]pyridine)-3-sulfonyl}-6-[(1-methyl)-4-pyrazolyl]-1-H-pyrazolo[4,3-b]pyridine], for which, in assay [1], the inhibition at 10 µM is above 64.5%. In assay [2], the IC50 stood at 0.3 ± 0.1 nM, the inhibition at 0.1 µM is 100% and the inhibition at 1 µM was determined as 100%.
